Experimental data reported in ChEMBL document CHEMBL5653615 (J Biol Chem, 2013).
Activity calls are given as the source filed them. The rule behind the calls is not given here.

Legend:
CHO-K1 = experiment: Inhibition of Insulin receptor M1153L mutant (unknown origin) transfected in CHO-K1 cell lysate at 10 uM for 30 mins on ice followed by insulin stimulation for 10 mins by Western blot analysis; assay type: subcellular; conditions: Homo sapiens, time 40.0 min
[1] = molecular target: Ribosomal protein S6 kinase alpha-4 (Homo sapiens) (UniProt O75676); experiment: Inhibition of human RPS6KA4 at 18.6 nM by HotSpot assay relative to control
Ribosomal protein S6 kinase alpha-4 (Homo sapiens), sequence (O75676 whole entry, looked up): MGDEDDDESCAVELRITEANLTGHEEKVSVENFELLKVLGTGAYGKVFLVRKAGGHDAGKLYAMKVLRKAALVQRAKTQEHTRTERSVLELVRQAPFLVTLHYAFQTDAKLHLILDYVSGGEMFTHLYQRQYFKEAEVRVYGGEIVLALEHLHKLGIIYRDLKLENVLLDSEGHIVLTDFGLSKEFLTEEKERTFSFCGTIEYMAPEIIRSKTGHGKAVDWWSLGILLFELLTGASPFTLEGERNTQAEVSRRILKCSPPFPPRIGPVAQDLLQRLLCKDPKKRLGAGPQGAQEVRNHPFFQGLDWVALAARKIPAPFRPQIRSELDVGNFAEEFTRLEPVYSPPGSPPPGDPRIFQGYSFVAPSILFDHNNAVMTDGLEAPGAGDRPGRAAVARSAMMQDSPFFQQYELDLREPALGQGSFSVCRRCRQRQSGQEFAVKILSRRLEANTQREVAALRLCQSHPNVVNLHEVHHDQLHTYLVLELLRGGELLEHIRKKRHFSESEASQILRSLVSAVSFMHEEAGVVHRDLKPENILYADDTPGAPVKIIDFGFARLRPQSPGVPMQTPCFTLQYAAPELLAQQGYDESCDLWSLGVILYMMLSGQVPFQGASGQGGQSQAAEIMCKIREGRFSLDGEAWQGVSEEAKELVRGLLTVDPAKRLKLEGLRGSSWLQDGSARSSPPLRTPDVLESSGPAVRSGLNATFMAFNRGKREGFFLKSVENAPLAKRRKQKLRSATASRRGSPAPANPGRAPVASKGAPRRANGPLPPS

[2] = molecular target: T1, Lymphokine-activated killer T-cell-originated protein kinase (Homo sapiens) (UniProt Q96KB5); experiment: Inhibition of human TOPK at 1.82 nM by HotSpot assay relative to control
T1 sequence (whole entry): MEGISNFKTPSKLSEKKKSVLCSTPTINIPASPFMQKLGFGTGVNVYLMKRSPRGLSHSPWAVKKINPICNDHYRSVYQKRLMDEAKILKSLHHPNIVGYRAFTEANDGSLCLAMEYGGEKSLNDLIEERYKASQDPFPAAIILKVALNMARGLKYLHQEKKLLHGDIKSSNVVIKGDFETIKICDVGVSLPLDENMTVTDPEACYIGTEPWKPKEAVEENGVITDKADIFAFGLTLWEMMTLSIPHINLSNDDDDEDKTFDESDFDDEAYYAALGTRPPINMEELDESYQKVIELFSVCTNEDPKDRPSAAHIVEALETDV

[3] = molecular target: T2, Serine/threonine-protein kinase ULK1 (Homo sapiens) (UniProt O75385); experiment: Inhibition of human ULK1 at 1.82 nM by HotSpot assay relative to control
T2 sequence (whole entry): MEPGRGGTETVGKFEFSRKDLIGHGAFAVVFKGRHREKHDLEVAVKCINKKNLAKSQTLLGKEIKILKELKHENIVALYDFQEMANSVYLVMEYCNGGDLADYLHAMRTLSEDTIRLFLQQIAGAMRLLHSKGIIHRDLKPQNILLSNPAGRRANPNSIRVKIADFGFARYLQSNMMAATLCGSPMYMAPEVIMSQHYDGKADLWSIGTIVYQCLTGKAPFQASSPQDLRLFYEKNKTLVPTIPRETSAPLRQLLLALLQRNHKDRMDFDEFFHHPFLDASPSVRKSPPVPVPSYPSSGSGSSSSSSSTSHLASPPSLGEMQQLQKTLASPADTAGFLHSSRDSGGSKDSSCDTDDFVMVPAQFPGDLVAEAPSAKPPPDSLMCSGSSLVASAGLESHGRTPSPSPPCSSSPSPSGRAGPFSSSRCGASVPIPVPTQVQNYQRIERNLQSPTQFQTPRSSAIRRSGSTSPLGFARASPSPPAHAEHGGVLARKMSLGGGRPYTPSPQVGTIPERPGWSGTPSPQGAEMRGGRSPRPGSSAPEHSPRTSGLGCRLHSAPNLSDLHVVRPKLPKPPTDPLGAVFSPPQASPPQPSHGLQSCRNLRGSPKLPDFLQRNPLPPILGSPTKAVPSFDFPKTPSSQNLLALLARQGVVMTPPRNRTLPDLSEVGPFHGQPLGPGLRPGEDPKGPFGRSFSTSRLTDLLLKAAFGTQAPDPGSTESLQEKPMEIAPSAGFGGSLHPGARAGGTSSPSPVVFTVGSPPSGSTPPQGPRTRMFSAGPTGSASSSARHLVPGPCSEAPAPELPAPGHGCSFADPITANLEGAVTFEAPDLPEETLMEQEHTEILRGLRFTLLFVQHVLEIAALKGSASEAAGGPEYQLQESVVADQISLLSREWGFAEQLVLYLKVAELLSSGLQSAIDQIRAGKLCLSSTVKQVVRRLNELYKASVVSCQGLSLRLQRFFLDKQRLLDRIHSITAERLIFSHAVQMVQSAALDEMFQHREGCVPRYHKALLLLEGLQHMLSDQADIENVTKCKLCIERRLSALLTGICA

[4] = molecular target: Serine/threonine-protein kinase pim-3 (Homo sapiens) (UniProt Q86V86); experiment: Inhibition of human PIM3 at 1.82 nM by HotSpot assay relative to control
[5] = molecular target: Casein kinase II subunit alpha' (Homo sapiens) (UniProt P19784); experiment: Inhibition of human CK2a2 at 1.82 nM by HotSpot assay relative to control
Casein kinase II subunit alpha' (Homo sapiens), sequence (P19784 whole entry, looked up): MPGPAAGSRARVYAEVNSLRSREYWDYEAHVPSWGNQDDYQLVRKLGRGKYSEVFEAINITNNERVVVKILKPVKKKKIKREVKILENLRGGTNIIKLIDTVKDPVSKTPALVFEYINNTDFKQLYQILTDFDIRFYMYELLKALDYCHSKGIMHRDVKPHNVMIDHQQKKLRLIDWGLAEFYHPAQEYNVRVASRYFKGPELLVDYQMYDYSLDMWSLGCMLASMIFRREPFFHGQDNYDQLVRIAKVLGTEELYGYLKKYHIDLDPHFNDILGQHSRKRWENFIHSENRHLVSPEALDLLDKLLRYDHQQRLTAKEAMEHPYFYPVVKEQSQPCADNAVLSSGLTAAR

[6] = molecular target: T3, Serine/threonine-protein kinase TAO1 (Homo sapiens) (UniProt Q7L7X3); experiment: Inhibition of human TAOK1 at 1.82 nM by HotSpot assay relative to control
T3 sequence (whole entry): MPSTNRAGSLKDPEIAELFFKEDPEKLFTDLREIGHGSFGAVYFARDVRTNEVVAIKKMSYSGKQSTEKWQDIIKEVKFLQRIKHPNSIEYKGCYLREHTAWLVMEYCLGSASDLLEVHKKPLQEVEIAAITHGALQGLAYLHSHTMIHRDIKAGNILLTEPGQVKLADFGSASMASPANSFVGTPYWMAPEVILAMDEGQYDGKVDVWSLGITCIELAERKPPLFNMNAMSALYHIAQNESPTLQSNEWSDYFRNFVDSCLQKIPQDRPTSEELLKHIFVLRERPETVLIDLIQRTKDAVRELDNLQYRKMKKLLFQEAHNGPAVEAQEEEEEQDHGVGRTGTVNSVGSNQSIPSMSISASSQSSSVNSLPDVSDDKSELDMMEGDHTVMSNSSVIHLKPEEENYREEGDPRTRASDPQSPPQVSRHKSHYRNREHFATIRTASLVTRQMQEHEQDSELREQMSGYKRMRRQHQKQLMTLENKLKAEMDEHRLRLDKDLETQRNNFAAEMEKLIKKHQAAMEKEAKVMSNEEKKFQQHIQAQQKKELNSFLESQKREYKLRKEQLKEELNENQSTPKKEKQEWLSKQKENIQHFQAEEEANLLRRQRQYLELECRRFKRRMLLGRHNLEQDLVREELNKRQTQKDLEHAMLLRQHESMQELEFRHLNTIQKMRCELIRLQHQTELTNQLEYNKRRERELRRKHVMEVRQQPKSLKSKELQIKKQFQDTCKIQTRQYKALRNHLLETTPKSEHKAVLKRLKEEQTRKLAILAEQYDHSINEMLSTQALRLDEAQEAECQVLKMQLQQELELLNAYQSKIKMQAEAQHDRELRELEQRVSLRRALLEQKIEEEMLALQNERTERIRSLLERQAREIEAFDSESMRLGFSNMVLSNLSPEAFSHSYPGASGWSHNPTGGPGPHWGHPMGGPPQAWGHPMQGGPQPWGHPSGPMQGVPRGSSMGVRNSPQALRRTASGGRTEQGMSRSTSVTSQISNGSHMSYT

[7] = molecular target: Serine/threonine-protein kinase Chk2 (Homo sapiens) (UniProt O96017); experiment: Inhibition of human CHK2 at 1.82 nM by HotSpot assay relative to control
Serine/threonine-protein kinase Chk2 (Homo sapiens), sequence (O96017 whole entry): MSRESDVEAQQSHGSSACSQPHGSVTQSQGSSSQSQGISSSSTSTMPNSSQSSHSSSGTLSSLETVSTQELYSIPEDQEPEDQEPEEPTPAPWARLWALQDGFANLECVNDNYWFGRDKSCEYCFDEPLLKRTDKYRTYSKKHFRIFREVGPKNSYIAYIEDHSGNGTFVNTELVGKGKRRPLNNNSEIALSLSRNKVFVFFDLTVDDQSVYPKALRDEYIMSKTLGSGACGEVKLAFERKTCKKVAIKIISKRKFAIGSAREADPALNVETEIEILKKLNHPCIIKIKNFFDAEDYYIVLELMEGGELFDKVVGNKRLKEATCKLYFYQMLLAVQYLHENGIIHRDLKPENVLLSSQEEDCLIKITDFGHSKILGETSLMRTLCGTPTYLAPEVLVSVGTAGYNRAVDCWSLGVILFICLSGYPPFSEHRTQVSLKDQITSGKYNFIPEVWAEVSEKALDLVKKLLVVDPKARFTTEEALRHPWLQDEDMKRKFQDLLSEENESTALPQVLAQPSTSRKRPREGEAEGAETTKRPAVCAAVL

[8] = molecular target: Serine/threonine-protein kinase PLK1 (Homo sapiens) (UniProt P53350); experiment: Inhibition of human PLK1 at 1.82 nM by HotSpot assay relative to control
Serine/threonine-protein kinase PLK1 (Homo sapiens), sequence (P53350 whole entry): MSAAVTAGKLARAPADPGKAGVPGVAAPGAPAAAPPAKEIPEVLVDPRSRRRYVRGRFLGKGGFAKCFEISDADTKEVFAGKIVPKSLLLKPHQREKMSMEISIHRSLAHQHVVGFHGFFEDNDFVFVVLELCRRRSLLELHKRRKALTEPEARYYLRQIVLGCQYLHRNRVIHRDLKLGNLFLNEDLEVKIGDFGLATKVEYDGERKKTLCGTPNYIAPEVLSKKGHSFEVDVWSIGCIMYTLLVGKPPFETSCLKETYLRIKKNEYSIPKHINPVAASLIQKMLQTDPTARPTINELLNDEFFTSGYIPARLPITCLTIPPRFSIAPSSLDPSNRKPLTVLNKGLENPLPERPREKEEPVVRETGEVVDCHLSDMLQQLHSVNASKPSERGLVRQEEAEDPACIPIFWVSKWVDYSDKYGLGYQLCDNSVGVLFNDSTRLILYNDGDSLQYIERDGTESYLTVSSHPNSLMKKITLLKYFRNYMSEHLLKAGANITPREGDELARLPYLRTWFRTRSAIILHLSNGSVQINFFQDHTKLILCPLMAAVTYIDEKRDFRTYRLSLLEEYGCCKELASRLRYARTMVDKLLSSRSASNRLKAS

## Oc1n[nH]c2nnc(-c3c(-c4ccccc4)nn4ccccc34)cc12
CHO-K1
  inhibition: inactive

## C[C@]1(O)C[C@@H](c2nc(-c3ccc4ccc(-c5ccccc5)nc4c3)c3c(N)nccn32)C1
[1]
  inhibition: -2.53%

## C[C@@]1(C(=O)Nc2ccc(F)nc2)CCCN1c1nc(Nc2cc(C3CC3)n[nH]2)c2cccn2n1
[2]
  inhibition: 8.44%
[3]
  inhibition: 0.76%
[4]
  inhibition: 19.1%
[5]
  inhibition: 11.7%
[6]
  inhibition: 4.21%
[7]
  inhibition: 0.29%
[8]
  inhibition: -4.97%
